Measurements published in patent US12275958B2, “Gut organoid and method for producing the same” (DAI NIPPON PRINTING CO., LTD., priority 2017, dated 2025).

Key:
[1] = test system: hESC-derived gut organoid showing peristalsis-like movement; experiment: In vitro contractility of human gut organoids (motile); type: cell-based; settings: 0.2 μM, aspect ratio from video; for frequency / rate of gut organoid contractile movement: days 80-90 in culture
Method: A single human embryonic stem cell (hESC)-derived gut organoid showing peristalsis-like movement (days 80-90 in culture) was treated with the peristaltic stimulator histamine (0.2 μM) and the cholinergic antagonist atropine sulfate (0.2 μM). Contractility responses were recorded using an inverted microscope. Image analysis software CL-Quant version 3.10 (Nikon Corporation) was used to visualize movements in the gut organoid. First, in each frame of the time-lapse images, the software was used to identify a specific region of the organoid. Second, the software fitted an ellipse to this region and calculated the ratio of the longest to shortest diameter to obtain an aspect ratio. Changes in the aspect ratios with time were plotted on the chart. Videos were recorded at 30 frames per second.

human gut organoids = experiment: In vitro β-Ala-Lys-AMCA uptake by human gut organoids; type: cell-based; settings: 25 μM, 4 hours at 37° C., fluorescence
Method: Gut organoids grown in the differentiation induction medium 2 were washed with PBS and cultured in DMEM containing 25 μM fluorophore-conjugated dipeptide β-Ala-Lys-AMCA (Biotrend Chemicals) for 4 hours at 37° C. […] All sample images were recorded under standard conditions. For each concentration, 3 independent assays were performed.

In the case of `CN1[C@@H]2CC[C@H]1CC(OC(=O)C(CO)c1ccccc1)C2.CN1[C@@H]2CC[C@H]1CC(OC(=O)C(CO)c1ccccc1)C2.O=S(=O)(O)O` (some centres unmarked) [atropine, atropine sulfate], the contraction amplitude [1] is reported as “decreased” and the “frequency / rate of gut organoid contractile movement” value [1] is reported as “decreased”.

In the case of `NCCc1c[nH]cn1` [histamine], the “frequency / rate of gut organoid contractile movement” value [1] is reported as “increased”.

For `Cc1c(CC(=O)NCCCC[C@H](NC(=O)CCN)C(=O)O)c(=O)oc2cc(N)ccc12` [β-Ala-Lys-AMCA, β-Ala-Lys-N(c)-7-amino-4-methylcoumarin-3-acetic acid], the “uptake (peptide absorption) of the fluorophore-conjugated dipeptide by gut organoids” value (human gut organoids) was “capable of uptake” and the “uptake (peptide absorption) of the fluorophore-conjugated dipeptide by gut organoids” value (human gut organoids; listed as β-Ala-Lys-N(c)-7-amino-4-methylcoumarin-3-acetic acid) was “showed peptide absorption”.
